Source: the NIST ThermoML archive (doi:10.1016/j.fluid.2012.08.009)

Details: Liquid; for vapor or sublimation pressure: Ebulliometric method (Recirculating still); for Normal boiling temperature: Siwoloboff method

CCO[Si](C)(OCC)c1ccc(C)cc1 [diethoxy(methyl)(p-tolyl)silane]
Details | Normal boiling temperature [°C] | vapor or sublimation pressure [kPa]
– | 239.57 | –
394.65 K | – | 2
402.86 K | – | 3
409.39 K | – | 4
414.72 K | – | 5
419.19 K | – | 6
423.25 K | – | 7
429.82 K | – | 9
435.35 K | – | 11
442.33 K | – | 14
448.16 K | – | 17
453.16 K | – | 20
457.61 K | – | 23
461.72 K | – | 26
465.36 K | – | 29
468.68 K | – | 32
471.81 K | – | 35
474.73 K | – | 38
477.27 K | – | 41
479.82 K | – | 44
482.24 K | – | 47
484.62 K | – | 50
486.87 K | – | 53

CCO[Si](C)(OCC)c1cccc(C)c1 [diethoxy(methyl)(m-tolyl)silane]
Details | Normal boiling temperature [°C] | vapor or sublimation pressure [kPa]
– | 235.8 | –
391.91 K | – | 2
400.12 K | – | 3
406.47 K | – | 4
411.84 K | – | 5
416.3 K | – | 6
420.23 K | – | 7
426.81 K | – | 9
432.31 K | – | 11
439.13 K | – | 14
444.83 K | – | 17
449.84 K | – | 20
454.26 K | – | 23
458.23 K | – | 26
461.73 K | – | 29
465.1 K | – | 32
468.22 K | – | 35
471.02 K | – | 38
473.69 K | – | 41
476.21 K | – | 44
478.56 K | – | 47
480.85 K | – | 50
483.08 K | – | 53
485.67 K | – | 57
488.08 K | – | 61

CCO[Si](C)(OCC)c1ccccc1C [diethoxy(methyl)(o-tolyl)silane]
Details | Normal boiling temperature [°C] | vapor or sublimation pressure [kPa]
– | 239.83 | –
393.45 K | – | 2
401.5 K | – | 3
407.98 K | – | 4
413.33 K | – | 5
417.79 K | – | 6
421.8 K | – | 7
431.54 K | – | 10
439.05 K | – | 13
445.46 K | – | 16
450.67 K | – | 19
455.4 K | – | 22
459.55 K | – | 25
463.3 K | – | 28
466.73 K | – | 31
469.94 K | – | 34
472.92 K | – | 37
475.72 K | – | 40
478.35 K | – | 43
480.89 K | – | 46
483.26 K | – | 49

CN1CCCC1=O [N-methylpyrrolidone]
Details | Normal boiling temperature [°C] | vapor or sublimation pressure [kPa]
– | 202.14 | –
380.76 K | – | 4.742
388.05 K | – | 6.361
400.39 K | – | 10.29
411.34 K | – | 15.22
420.9 K | – | 20.97
432.23 K | – | 30.08
441.78 K | – | 39.96
451.08 K | – | 52.18
457.44 K | – | 62.11
475.79 K | – | 99.4
